Test results taken from patent US5208135A, “Preparation and use of dyes” (Minnesota Mining and Manufacturing Company, priority 1990, dated 1993).

Columns and labels:
[1] = Dye stability on storage in light-tight envelope at room temperature; format: physicochemical; details: for Loss of optical density after storage (thermal bleaching): Example 5 coating, 24 hour storage, light-tight envelope; for Loss of optical density after storage (thermal bleaching) / Loss of dye density during storage / Dye Stability: OD at Day 0 / Dye Stability: OD at Day 7: room temperature; for Loss of dye density during storage: less than 24 hours; for Dye Stability: OD at Day 0 / Dye Stability: OD at Day 7: lighttight envelope
Experimental: However, both Control Dyes 1 and 2 are readily bleached during storage with an 80% loss of dye density in less than 24 hours. Thus the dyes of the invention show increased stability compared with the control dyes.
*Storage is conducted in a lighttight envelope at room temperature.

[2] = Absorption maximum and optical density of dye; format: physicochemical; details: for λmax: Table 1
Experimental: The solution was coated using K-bar 3 onto unsubbed 0.01 cm PET base and the resulting coating dried for 1 hour at 30° C. ("K-bars" are wire wound coating rods manufactured by R.K. Print-Coat Instrument Ltd.) The dried coating was topcoated with an aqueous solution of poly(vinyl alcohol) (8%) containing Tergitol TMN-10, commercially available from Union Carbide, using K-Bar 8 (10 ml 8% poly(vinyl alcohol) containing 1 ml 10% Tergitol TMN-10). The top coating was dried for 12 hours at 30° C. to provide a PVA oxygen-impermeable barrier layer over the photopolymer layer. The inclusion of a PVA barrier layer provides a more controlled imaging element for the evaluation of dye sensitised photopolymerisation than the composite of the previous Example.

[3] = Sensitisation of acrylate polymerisation: tungsten light exposure of laminate, acetone development (Example 4); details: coating; for Acetone Solubility After Exposure: after exposure to 250W tungsten light source for 30 seconds
Experimental: The ability of Dye C of the invention and Control Dyes 1 and 2 to sensitise acrylate polymerisation was evaluated by the following protocol.
A solution of Dye C (0.lg), pentaerythritol tetraacrylate monomer (0.6g), commercially available from Ancomer Chemicals under the trade designation ATM 11, 4-butoxyphenyl phenyl iodonium trifluoroacetate (0.125g) shown below as IOD J, and poly(vinyl butyral) (Butvar B-76) (0.6 g), was made in butanone (95 g) in conditions of diminished light. [drawing 30]
The solution was coated onto 0.01 cm unsubbed poly(ethylene terephthalate) (PET) base at a wet thickness of 24μm and dried. A laminate was prepared by covering the monomer coating with a second 0.01 cm PET sheet by cold pressure rolling. The laminate was imagewise exposed to a 250W tungsten light source for 30 seconds using the stage of an overhead projector. […] Stripping of the cover sheet was more readily completed in exposed areas, whereas, in unexposed areas the monomer coatings partially adhered to the cover sheet. The latent image was developed by immersion in acetone, wherein exposed areas remained adhered to the PET base and unexposed areas were rapidly dissolved to obtain a relief image.

Compound | Loss of optical density after storage (thermal bleaching) [1] | Loss of dye density during storage ([1]; laminate) [%] | Dye Stability: OD at Day 0 [1] | Dye Stability: OD at Day 7 [1] | λmax [2] [nm] | Acetone Solubility After Exposure [3] | Acetone Solubility Before Exposure [3] | Imaging characteristics after storage ([1]; laminate, light tight envelope, 7 days, room temperature prior to exposure) | Absorption maximum in coating ([2]; dried coating of Example 5) [nm] | OD at the absorption maximum ([2]; dried coating of Example 5, at 803 nm)
O=C1C(=CC=CC=CC=CC2=C(O)c3ccccc3C2=O)C(=O)c2ccccc21 [Control Dye 2] | lost substantially all optical density | 80 | 1.5 | 0.1 | 760 | Yes | Yes |  |  | 
CCOC(=O)C(C#N)=CC=CC=CC=CC(C#N)=C(O)OCC [Control Dye 1] | lost substantially all optical density | 80 | 1.3 | 0.1 | 650 | Yes | Yes |  |  | 
N#CC(C#N)=C1C(=CC=CC=CC2=C(O)c3c(cccc3[N+](=O)[O-])C2=C(C#N)C#N)C(=O)c2c1cccc2[N+](=O)[O-] [Dye C] |  |  | 0.8 | 0.8 | 815 | No | Yes | unchanged imaging characteristics |  | 
N#CC(C#N)=C1C(=CC=CC=CC2=C(O)c3ccccc3C2=C(C#N)C#N)C(=O)c2ccccc21 [Dye B] |  |  |  |  |  |  |  |  | 803 | 0.39
